# From patent EP2970215B1, “PYRROLIDINE DERIVATIVES, PHARMACEUTICAL COMPOSITIONS CONTAINING THEM, AND THEIR USE IN THERAPY” (AbbVie Deutschland GmbH & Co. KG, priority 2013, dated 2014)
# Biological target: T1, human GlyT1c transporter (Homo sapiens, UniProt P48067)
# T1 construct: expressed in transfected cells; host or cells: CHO cells (recombinant; line hGlyT1c_5_CHO is named for the uptake assay)
# T1 sequence (P48067 1-706): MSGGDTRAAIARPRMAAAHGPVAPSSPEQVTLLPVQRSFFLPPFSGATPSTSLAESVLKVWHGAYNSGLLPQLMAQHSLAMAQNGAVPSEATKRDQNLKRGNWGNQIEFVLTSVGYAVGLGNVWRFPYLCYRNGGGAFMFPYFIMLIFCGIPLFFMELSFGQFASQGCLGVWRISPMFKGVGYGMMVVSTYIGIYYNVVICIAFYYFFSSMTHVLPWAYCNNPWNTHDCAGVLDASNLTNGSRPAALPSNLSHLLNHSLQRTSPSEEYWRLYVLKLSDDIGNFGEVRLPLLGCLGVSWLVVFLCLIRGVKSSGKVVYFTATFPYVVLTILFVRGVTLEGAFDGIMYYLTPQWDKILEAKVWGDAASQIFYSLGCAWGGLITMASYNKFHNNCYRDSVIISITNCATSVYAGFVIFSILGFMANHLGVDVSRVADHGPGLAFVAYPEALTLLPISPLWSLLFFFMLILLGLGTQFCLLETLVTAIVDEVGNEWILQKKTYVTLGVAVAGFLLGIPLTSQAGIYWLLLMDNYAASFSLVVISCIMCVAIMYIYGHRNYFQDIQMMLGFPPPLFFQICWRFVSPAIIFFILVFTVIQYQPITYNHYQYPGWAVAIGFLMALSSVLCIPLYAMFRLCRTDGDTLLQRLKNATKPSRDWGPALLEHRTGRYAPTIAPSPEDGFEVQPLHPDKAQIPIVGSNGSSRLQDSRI
# Assay: Radioligand binding assay using recombinant CHO cell membranes expressing human GlyT1
# Conditions: radioligand binding to human GlyT1c transporter-expressing membranes
# Source text: 2. Radioligand binding assays using recombinant CHO cell membranes expressing human GlyT1: […]
row,Ki,Compound
1,≤ 10 µM,"COC[C@H](C)NC[C@@H]1CN(S(=O)(=O)c2cn(C)cn2)C[C@H]1c1ccc(F)cc1 (mixture of isomers) [Example 596, (2S)-N-({trans-4-(4-fluorophenyl)-1-[(1-methyl-1H-imidazol-4-yl)sulfonyl]pyrrolidin-3-yl}methyl)-1-methoxypropan-2-amine]"
2,≤ 0.1 µM,"Cn1cnc(S(=O)(=O)N2C[C@@H]([C@@H]3CCCOC3)[C@H](Nc3cccc(OC(F)(F)F)c3)C2)c1 (mixture of isomers) [Example 784, trans-1-[(1-methyl-1H-imidazol-4-yl)sulfonyl]-4-[(3S)-tetrahydro-2H-pyran-3-yl]-N-[3-(trifluoromethoxy)phenyl]pyrrolidin-3-amine]"
3,≤ 1 µM,"Cn1cnc(S(=O)(=O)N2C[C@@H]([C@@H]3CCCOC3)[C@H](Nc3cccc(Oc4ccccc4)c3)C2)c1 (mixture of isomers) [Example 786, trans-1-[(1-methyl-1H-imidazol-4-yl)sulfonyl]-N-(3-phenoxyphenyl)-4-[(3S)-tetrahydro-2H-pyran-3-yl]pyrrolidin-3-amine]"
4,≤ 1 µM,"Cn1cnc(S(=O)(=O)N2C[C@@H]([C@@H]3CCCOC3)[C@H](Nc3cccc(-c4ccccc4)c3)C2)c1 (mixture of isomers) [Example 787, trans-N-(biphenyl-3-yl)-1-[(1-methyl-1H-imidazol-4-yl)sulfonyl]-4-[(3S)-tetrahydro-2H-pyran-3-yl]pyrrolidin-3-amine]"
5,≤ 1 µM,"Cn1cnc(S(=O)(=O)N2C[C@@H]([C@@H]3CCCOC3)[C@H](Nc3ccc(F)c(OC(F)(F)F)c3)C2)c1 (mixture of isomers) [Example 788, Trans-N-[4-fluoro-3-(trifluoromethoxy)phenyl]-1-[(1-methyl-1H-imidazol-4-yl)sulfonyl]-4-[(3S)-tetrahydro-2H-pyran-3-yl]pyrrolidin-3-amine]"
6,≤ 1 µM,"Cc1cc(N[C@@H]2CN(S(=O)(=O)c3cn(C)cn3)C[C@H]2[C@@H]2CCCOC2)ccc1F (mixture of isomers) [Example 790, Trans-N-(4-fluoro-3-methylphenyl)-1-[(1-methyl-1H-imidazol-4-yl)sulfonyl]-4-[(3S)-tetrahydro-2H-pyran-3-yl]pyrrolidin-3-amine]"
7,≤ 1 µM,"Cn1cnc(S(=O)(=O)N2C[C@@H]([C@@H]3CCCOC3)[C@H](Nc3ccc(F)c(C(F)(F)F)c3)C2)c1 (mixture of isomers) [Example 791, Trans-N-[4-fluoro-3-(trifluoromethyl)phenyl]-1-[(1-methyl-1H-imidazol-4-yl)sulfonyl]-4-[(3S)-tetrahydro-2H-pyran-3-yl]pyrrolidin-3-amine]"
8,≤ 1 µM,"COc1ccc([C@@H]2CN(S(=O)(=O)c3cn(C)cn3)C[C@H]2NC(=O)c2cccc(C(F)(F)F)c2Cl)cc1 (relative stereo) [Example 2, 2-chloro-N-{trans-4-(4-methoxyphenyl)-1-[(1-methyl-1H-imidazol-4-yl)sulfonyl]pyrrolidin-3-yl}-3-(trifluoromethyl)benzamide]"

row,Compound,Ki
1,"Cn1cnc(S(=O)(=O)N2C[C@@H]([C@@H]3CCCOC3)[C@H](Nc3ccc(F)c(Cl)c3)C2)c1 (mixture of isomers) [Example 789, Trans-N-(3-chloro-4-fluorophenyl)-1-[(1-methyl-1H-imidazol-4-yl)sulfonyl]-4-[(3S)-tetrahydro-2H-pyran-3-yl]pyrrolidin-3-amine]",≤ 1 µM
2,"Cn1cnc(S(=O)(=O)N2C[C@@H]([C@@H]3CCCOC3)[C@H](Nc3cccc(OCc4ccccc4)c3)C2)c1 (mixture of isomers) [Example 794, Trans-N-[3-(benzyloxy)phenyl]-1-[(1-methyl-1H-imidazol-4-yl)sulfonyl]-4-[(3S)-tetrahydro-2H-pyran-3-yl]pyrrolidin-3-amine]",≤ 1 µM

# Same assay, conditions: radioligand binding, recombinant CHO cell membranes expressing human GlyT1c
row,Compound,Ki
1,"2-[(1-methyl-1H-imidazol-4-yl)sulfonyl]-N-[4-(trifluoromethyl)pyridin-2-yl]-2,3,3a,8-tetrahydroindeno[1,2-c]pyrrol-8a(1H)-amine [Example 892]",≤ 0.1 µM
